Assay results reported in US20260240832A1, “USE OF NITROXOLINE COMPOUND IN ENHANCING EFFECT OF ANTIBACTERIAL AGENT” (Jiangsu Yahong Meditech Co., Ltd., priority 2022, published 2026).

What was measured:
[1] = tested on: carbapenem-resistant Acinetobacter baumannii; assay: Chessboard microbroth dilution MIC/FIC, compound 1 in combination with polymyxin; format: cell-based; details: for MIC: Acinetobacter baumannii, read-out: Compound 1 MIC alone; for Compound 1 MIC in combination: with polymyxin
Source text: This experiment is designed to determine the minimum inhibitory concentration (MIC) of compound 1 in combination with polymyxin against carbapenem-resistant Acinetobacter baumannii and to calculate the fractional inhibitory concentration (FIC) index.
(§1) Test bacteria: 10 strains of carbapenem-resistant Acinetobacter baumannii are clinically isolated strains, and are provided by Shanghai Junji Medical Laboratory Co., Ltd.
According to the recommendation of the Clinical and Laboratory Standards Institute (CLSI), the microbroth dilution method designed by the chessboard method was used to determine the minimum inhibitory concentration (MIC) of compound 1 in combination with polymyxin against the above strains, and the fractional inhibitory concentration (FIC) index was calculated.
Compound 1 was dissolved in dimethyl sulfoxide to obtain a stock solution I with a concentration of 51200 mg/L. The stock solution I was subjected to 1:1 gradient dilution with dimethyl sulfoxide to obtain a dilution solution with a concentration range of 51200 to 25 mg/L. The corresponding concentrations were added to sterile water for 100-fold dilution to obtain working solution I with a concentration range of 512 to 0.25 mg/L.
Polymyxin was dissolved in sterile water to obtain a stock solution with a concentration of 5120 mg/L. The polymyxin stock solution was subjected to 1:1 gradient dilution with sterile water to obtain a working solution II with a concentration range of 512 to 0.25 mg/L.
(§2) According to the method in Example 1, a drug sensitive plate was prepared with working solution I and working solution II, and the specific process will not be repeated here.
(§3) (2) The culture medium of the bacterial solution: Cation-Adjusted Mueller-Hinton Broth (CAMHB), a product of BBL, USA, batch number 9015952.
(§4) (3) Formulation method of bacterial solution: According to the direct colony suspension method, the test bacteria cultured overnight were prepared into a 0.5 McFarland turbidity tube using physiological saline. Then, the resulting solution was dilute 100 times with the above culture medium. 100 μL of the resulting bacterial solution was mixed well with the solution (100 μL) in each well of the drug sensitivity plate, and the final inoculation amount was 10^5 CFU/mL.
(§5) (4) Culture conditions: Culturing at 35±2° C. for 20 hours in air.
(§6) (1) The experimental results were determined according to the standard of CLSI 2020 M100 30th edition.
(§7) wherein: FIC≤0.5 indicates synergistic effect; 0.5<FIC≤1.0 indicates additive effect; 1<FIC≤2.0 indicates irrelevant effect; and FIC>2 indicates antagonistic effect.

[2] = tested on: carbapenem-resistant Acinetobacter baumannii; assay: Chessboard microbroth dilution MIC/FIC, compound A in combination with meropenem; format: cell-based; details: for MIC: Acinetobacter baumannii, read-out: Meropenem MIC alone; for Meropenem MIC in combination: with compound A
Source text: This experiment is designed to determine the minimum inhibitory concentration (MIC) of compound A in combination with meropenem against carbapenem-resistant Acinetobacter baumannii and to calculate the fractional inhibitory concentration (FIC) index.
as §1
According to the recommendation of the Clinical and Laboratory Standards Institute (CLSI), the microbroth dilution method designed by the chessboard method was used to determine the minimum inhibitory concentration (MIC) of compound A in combination with meropenem against the above strains, and the fractional inhibitory concentration (FIC) index was calculated.
Compound A was dissolved in dimethyl sulfoxide to obtain a stock solution I with a concentration of 51200 mg/L. The stock solution I was subjected to 1:1 gradient dilution with dimethyl sulfoxide to obtain a dilution solution with a concentration range of 51200 to 25 mg/L. The corresponding concentrations were added to sterile water for 100-fold dilution to obtain working solution I with a concentration range of 512 to 0.25 mg/L.
Meropenem was dissolved in sterile water to obtain a stock solution with a concentration of 5120 mg/L. The […] stock solution was subjected to 1:1 gradient dilution with sterile water to obtain a working solution II with a concentration range of 512 to 0.25 mg/L.
as §2, §3, §4, §5, §6, §7

[3] = strain 18-J11-001, compound 1 + polymyxin
[4] = strain 18-J11-002, compound 1 + polymyxin
[5] = strain 18-J11-034, compound 1 + polymyxin
[6] = strain 18-J11-097, compound 1 + polymyxin
[7] = strain 18-J15-030, compound 1 + polymyxin
[8] = strain 18-J21-095, compound 1 + polymyxin
[9] = strain 18-J24-015, compound 1 + polymyxin
[10] = strain 18-J24-033, compound 1 + polymyxin
[11] = strain 18-J40-021, compound 1 + polymyxin
[12] = strain 18-J51-052, compound 1 + polymyxin

Question: What does the source list for `O=[N+]([O-])c1c(Br)c(Cl)c2cccnc2c1O` [Compound 1, 6-bromo-5-chloro-7-nitroquinolin-8-ol]?
Answer: MIC ([1]; strain 18-J11-001): 8 µg/mL; MIC ([1]; strain 18-J11-002): 4 µg/mL; MIC ([1]; strain 18-J11-034): 4 µg/mL; MIC ([1]; strain 18-J11-097): 4 µg/mL; MIC ([1]; strain 18-J15-030): 16 µg/mL; MIC ([1]; strain 18-J21-095): 8 µg/mL; MIC ([1]; strain 18-J24-015): 8 µg/mL; MIC ([1]; strain 18-J24-033): 4 µg/mL; MIC ([1]; strain 18-J40-021): 8 µg/mL; MIC ([1]; strain 18-J51-052): 4 µg/mL; change of the MIC of polymyxin by the combination ([1]; compound 1 + polymyxin): significantly reduce; effect of the combination (summary of Table 2) ([1]; compound 1 + polymyxin): synergistic effect (FIC≤0.5 indicates synergistic effect); FIC index [1, 3]: 0.303; Results [1, 3]: Synergistic; Compound 1 MIC in combination ([1]; strain 18-J11-001): 0.5 µg/mL; FIC index [1, 4]: 0.740; Results [1, 4]: Additive; Compound 1 MIC in combination ([1]; strain 18-J11-002): 2 µg/mL; FIC index [1, 5]: 0.500; Results [1, 5]: Synergistic; Compound 1 MIC in combination ([1]; strain 18-J11-034): 1 µg/mL; FIC index [1, 6]: 0.365; Results [1, 6]: Synergistic; Compound 1 MIC in combination ([1]; strain 18-J11-097): 0.5 µg/mL; FIC index [1, 7]: 0.313; Results [1, 7]: Synergistic; Compound 1 MIC in combination ([1]; strain 18-J15-030): 1 µg/mL; FIC index [1, 8]: 0.740; Results [1, 8]: Additive; Compound 1 MIC in combination ([1]; strain 18-J21-095): 4 µg/mL; FIC index [1, 9]: 0.375; Results [1, 9]: Synergistic; Compound 1 MIC in combination ([1]; strain 18-J24-015): 1 µg/mL; FIC index [1, 10]: 0.500; Results [1, 10]: Synergistic; Compound 1 MIC in combination ([1]; strain 18-J24-033): 1 µg/mL; FIC index [1, 11]: 0.250; Results [1, 11]: Synergistic; Compound 1 MIC in combination ([1]; strain 18-J40-021): 1 µg/mL; FIC index [1, 12]: 0.750; Results [1, 12]: Additive; Compound 1 MIC in combination ([1]; strain 18-J51-052): 2 µg/mL

Question: Which results are given for `C[C@@H](O)[C@H]1C(=O)N2C(C(=O)O)=C(S[C@@H]3CN[C@H](C(=O)N(C)C)C3)[C@H](C)[C@H]12` [Meropenem, reference compound]?
Answer: MIC ([2]; strain No. 1): 128 µg/mL; MIC ([2]; strain No. 2): 128 µg/mL; MIC ([2]; strain No. 3): 128 µg/mL; MIC ([2]; strain No. 4): 128 µg/mL; MIC ([2]; strain No. 5): 128 µg/mL; MIC ([2]; strain No. 6): 128 µg/mL; MIC ([2]; strain No. 7): 64 µg/mL; MIC ([2]; strain No. 8): 64 µg/mL; MIC ([2]; strain No. 9): 64 µg/mL; MIC ([2]; strain No. 10): 128 µg/mL; Meropenem MIC in combination ([2]; strain No. 1): 16 µg/mL; Meropenem MIC in combination ([2]; strain No. 2): 16 µg/mL; Meropenem MIC in combination ([2]; strain No. 3): 16 µg/mL; Meropenem MIC in combination ([2]; strain No. 4): 16 µg/mL; Meropenem MIC in combination ([2]; strain No. 5): 16 µg/mL; Meropenem MIC in combination ([2]; strain No. 6): 16 µg/mL; Meropenem MIC in combination ([2]; strain No. 7): 16 µg/mL; Meropenem MIC in combination ([2]; strain No. 8): 8 µg/mL; Meropenem MIC in combination ([2]; strain No. 9): 8 µg/mL; Meropenem MIC in combination ([2]; strain No. 10): 16 µg/mL
